# Measured values taken from patent US20230416248A1, “COMPOUNDS AND USES THEREOF” (Foghorn Therapeutics Inc., priority 2020, published 2023).
# Like-named read-outs stand apart in the source and are kept apart here.
# Legend:
# BRM = biological target: T1, BRM (Homo sapiens, UniProt P51531); test: ATPase catalytic activity of BRM, ADP-Glo in vitro biochemical assay; details: for IC50: 30 nM BRM, 400 μM ATP; for Ratio* (BRG1 IC50 (μM) divided by BRM IC50 (μM)): selectivity ratio BRG1 IC50 / BRM IC50
# T1 construct: made in house; host or cells: High Five insect cells
# Method in brief: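 ADP-Glo luminescence, after depletion of leftover ATP and conversion of ADP, reported the activity. The 1 h room-temperature reaction held 400 μM ATP, 20 nM salmon sperm DNA and 30 nM BRM in 20 mM Tris pH 8, 20 mM MgCl2, 50 mM NaCl, 0.1% Tween-20, 1 mM DTT.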
# BRG-1 = biological target: T2, BRG-1 (Homo sapiens, UniProt P51532); test: ATPase catalytic activity of BRG-1, ADP-Glo in vitro biochemical assay; details: 30 nM BRG-1, 400 μM ATP, read-out: BRG1 IC50
# T2 construct: made in house; host or cells: High Five insect cells
# Method in brief: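 Once the ATPase reaction finished, leftover ATP was depleted over 40 minutes at room temperature. Generated ADP was next turned back into ATP during a 60-minute room-temperature step. Luciferase-derived light was then measured.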
# [1] = ATPase catalytic activity, ADP-Glo
# T1 sequence (P51531 whole entry): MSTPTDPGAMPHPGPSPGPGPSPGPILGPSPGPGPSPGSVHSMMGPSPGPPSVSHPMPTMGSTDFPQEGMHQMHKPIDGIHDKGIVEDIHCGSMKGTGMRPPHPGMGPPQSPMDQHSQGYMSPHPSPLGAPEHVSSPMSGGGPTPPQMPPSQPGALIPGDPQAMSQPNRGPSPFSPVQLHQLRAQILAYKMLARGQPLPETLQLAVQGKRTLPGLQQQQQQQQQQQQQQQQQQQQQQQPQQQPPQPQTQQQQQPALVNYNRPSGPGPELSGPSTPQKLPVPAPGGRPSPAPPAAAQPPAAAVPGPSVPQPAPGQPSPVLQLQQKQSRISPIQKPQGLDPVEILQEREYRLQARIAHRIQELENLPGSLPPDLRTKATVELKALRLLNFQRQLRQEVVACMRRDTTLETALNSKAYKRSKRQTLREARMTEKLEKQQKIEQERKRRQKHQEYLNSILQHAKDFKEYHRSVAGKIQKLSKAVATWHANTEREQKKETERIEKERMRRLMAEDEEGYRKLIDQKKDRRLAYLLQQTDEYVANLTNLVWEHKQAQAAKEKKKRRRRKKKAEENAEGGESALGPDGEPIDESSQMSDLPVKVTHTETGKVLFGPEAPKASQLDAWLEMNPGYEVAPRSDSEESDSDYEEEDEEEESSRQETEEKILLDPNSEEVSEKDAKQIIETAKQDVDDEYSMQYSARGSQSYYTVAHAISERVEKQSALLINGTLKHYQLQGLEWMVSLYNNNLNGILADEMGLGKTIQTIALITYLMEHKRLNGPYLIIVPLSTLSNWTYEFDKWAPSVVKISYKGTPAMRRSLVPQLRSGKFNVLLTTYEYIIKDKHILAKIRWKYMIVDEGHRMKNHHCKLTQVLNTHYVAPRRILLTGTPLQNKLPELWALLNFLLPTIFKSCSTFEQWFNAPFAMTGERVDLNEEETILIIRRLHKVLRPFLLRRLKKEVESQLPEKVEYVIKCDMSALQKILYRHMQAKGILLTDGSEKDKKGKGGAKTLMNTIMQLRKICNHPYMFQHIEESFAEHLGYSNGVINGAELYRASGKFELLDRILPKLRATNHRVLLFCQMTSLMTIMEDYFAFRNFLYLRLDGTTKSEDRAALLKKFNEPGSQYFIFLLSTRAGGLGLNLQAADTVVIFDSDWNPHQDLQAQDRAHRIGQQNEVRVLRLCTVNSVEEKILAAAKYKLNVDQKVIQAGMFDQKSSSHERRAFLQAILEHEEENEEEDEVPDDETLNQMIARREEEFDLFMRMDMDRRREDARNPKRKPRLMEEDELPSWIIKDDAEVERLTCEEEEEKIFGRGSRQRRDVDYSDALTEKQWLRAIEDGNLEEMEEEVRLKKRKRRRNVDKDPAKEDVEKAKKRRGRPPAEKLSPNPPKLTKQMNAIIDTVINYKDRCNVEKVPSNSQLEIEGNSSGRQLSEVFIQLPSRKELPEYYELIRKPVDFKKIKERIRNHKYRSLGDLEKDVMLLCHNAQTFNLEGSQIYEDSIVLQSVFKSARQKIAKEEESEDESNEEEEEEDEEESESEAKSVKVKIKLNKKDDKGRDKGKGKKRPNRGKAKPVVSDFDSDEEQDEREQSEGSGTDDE
# T2 sequence (P51532 whole entry): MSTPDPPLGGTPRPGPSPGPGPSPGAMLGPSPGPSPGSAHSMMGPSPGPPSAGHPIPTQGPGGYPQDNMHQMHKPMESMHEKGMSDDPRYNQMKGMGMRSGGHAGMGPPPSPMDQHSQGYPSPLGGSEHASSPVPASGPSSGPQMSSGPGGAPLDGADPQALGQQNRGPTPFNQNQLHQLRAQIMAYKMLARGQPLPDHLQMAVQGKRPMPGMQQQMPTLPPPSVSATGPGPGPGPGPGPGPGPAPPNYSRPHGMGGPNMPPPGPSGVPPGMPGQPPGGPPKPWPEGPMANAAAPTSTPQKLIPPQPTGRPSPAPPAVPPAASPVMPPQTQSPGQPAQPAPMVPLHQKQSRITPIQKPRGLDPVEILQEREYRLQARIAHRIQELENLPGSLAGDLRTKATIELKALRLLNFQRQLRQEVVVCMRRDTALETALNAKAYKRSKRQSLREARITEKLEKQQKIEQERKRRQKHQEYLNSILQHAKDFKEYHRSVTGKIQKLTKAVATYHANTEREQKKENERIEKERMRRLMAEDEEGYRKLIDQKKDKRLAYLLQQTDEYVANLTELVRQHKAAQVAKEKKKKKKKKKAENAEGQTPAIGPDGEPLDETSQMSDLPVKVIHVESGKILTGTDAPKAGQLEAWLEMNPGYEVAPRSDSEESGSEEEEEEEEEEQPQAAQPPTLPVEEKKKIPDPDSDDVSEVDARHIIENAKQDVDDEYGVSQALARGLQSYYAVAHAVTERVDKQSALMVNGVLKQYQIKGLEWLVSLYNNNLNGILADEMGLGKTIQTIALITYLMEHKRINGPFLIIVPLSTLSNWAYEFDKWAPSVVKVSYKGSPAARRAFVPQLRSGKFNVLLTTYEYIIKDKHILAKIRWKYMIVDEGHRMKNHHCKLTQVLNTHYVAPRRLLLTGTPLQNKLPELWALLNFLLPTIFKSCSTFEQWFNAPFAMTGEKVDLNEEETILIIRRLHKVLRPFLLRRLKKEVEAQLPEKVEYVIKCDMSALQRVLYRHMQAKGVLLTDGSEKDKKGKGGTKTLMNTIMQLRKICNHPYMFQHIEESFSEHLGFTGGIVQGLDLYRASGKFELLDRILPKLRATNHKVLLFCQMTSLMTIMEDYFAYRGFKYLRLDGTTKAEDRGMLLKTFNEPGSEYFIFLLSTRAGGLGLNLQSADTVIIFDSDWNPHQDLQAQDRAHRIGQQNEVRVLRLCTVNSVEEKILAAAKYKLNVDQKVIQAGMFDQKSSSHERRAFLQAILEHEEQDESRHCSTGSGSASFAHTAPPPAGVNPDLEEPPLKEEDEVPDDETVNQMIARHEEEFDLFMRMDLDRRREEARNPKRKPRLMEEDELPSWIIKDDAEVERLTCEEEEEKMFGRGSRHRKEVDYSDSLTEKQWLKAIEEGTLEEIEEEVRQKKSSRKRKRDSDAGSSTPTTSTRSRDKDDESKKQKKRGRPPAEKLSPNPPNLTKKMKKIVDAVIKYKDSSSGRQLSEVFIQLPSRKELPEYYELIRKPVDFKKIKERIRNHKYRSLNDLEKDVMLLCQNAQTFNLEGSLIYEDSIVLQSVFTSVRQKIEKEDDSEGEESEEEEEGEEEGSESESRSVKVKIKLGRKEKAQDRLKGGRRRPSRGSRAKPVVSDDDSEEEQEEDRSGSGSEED
IC50 (BRM; ADP-Glo ATPase assay),Ratio* (BRM; ratio BRG1 IC50 / BRM IC50),IC50 (BRG-1; ADP-Glo ATPase assay),IC50 (BRM; [1]),Ratio* (BRM; ratio of BRG1 IC50 to BRM IC50),IC50 (BRG-1; [1]),Ratio* (BRG1 IC50 (μM) divided by BRM IC50 (μM)) (BRM),SMILES
33.8 nM,–,396 nM,–,–,–,11.71,O=C(NCc1cc2nc(N3CCCc4cccnc43)ccc2cn1)c1ccc2c(c1)S(=O)(=O)CCOC2 [Compound 150]
–,–,–,476 nM,4.77,2270 nM,–,Cc1ccc2c(n1)CN(c1ccc3cnc(CNC(=O)c4ccc5c(c4)S(=O)(=O)CCOC5)cc3n1)CC2 [Compound 408]
19.4 nM,–,177 nM,–,–,–,9.11,CO[C@H]1CCN(c2cccc(-c3ccc4cnc(CNC(=O)c5ccc6c(c5)S(=O)(=O)CCOC6)cc4n3)n2)C1 [Compound 201]
–,–,–,8.6 nM,15.19,130 nM,–,COc1nc(C(F)F)ccc1-c1ccc2cnc(CNC(=O)c3ccc4c(c3)S(=O)(=O)CCOC4)cc2n1 [Compound 329]
–,–,–,368 nM,7.55,2770 nM,–,COC[C@H]1C[C@H]1c1cccc(-c2ccc3cnc(CNC(=O)c4ccc5c(c4)S(=O)(=O)CCOC5)cc3n2)n1 [Compound 346]
–,–,–,6.4 nM,18.84,120 nM,–,O=C(NCc1cc2nc(N3CCCc4ccc(C(F)F)cc43)ccc2cn1)c1ccc2c(c1)S(=O)(=O)CCOC2 [Compound 532]
40 nM,–,221 nM,–,–,–,5.53,O=C(NCc1cc2nc(-c3ccc4c(n3)N(CC(F)F)CC4)ccc2cn1)c1ccc2c(c1)S(=O)(=O)CCOC2 [Compound 119]
105 nM,19.74,2070 nM,–,–,–,–,O=C(NCc1cc2nc(N3CCOc4ccc([C@@H](F)CF)nc43)ccc2cn1)c1ccc2c(c1)S(=O)(=O)CCOC2 [Compound 854]
17.5 nM,–,340 nM,–,–,–,19.39,CO[C@@H](C)CN(C)c1cccc(-c2ccc3cnc(CNC(=O)c4ccc5c(c4)S(=O)(=O)CCOC5)cc3n2)n1 [Compound 64]
437 nM,–,1790 nM,–,–,–,4.10,CN1CCc2nc(-c3ccc4cnc(CNC(=O)c5ccc6c(c5)S(=O)(=O)CCOC6)cc4n3)ccc21 [Compound 176]
6.9 nM,–,49.6 nM,–,–,–,7.16,C[C@H]1CN(c2cccc(-c3ccc4cnc(CNC(=O)c5ccc6c(c5)S(=O)(=O)CCOC6)cc4n3)n2)CCO1 [Compound 223]
4.6 nM,–,28.7 nM,–,–,–,6.29,C[C@@H]1CN(c2cccc(-c3ccc4cnc(CNC(=O)c5ccc6c(c5)S(=O)(=O)CCOC6)cc4n3)n2)CCO1 [Compound 225]
–,–,–,24.1 nM,10.47,253 nM,–,COCCN(c1cccc(-c2ccc3cnc(CNC(=O)c4ccc5c(c4)S(=O)(=O)CCOC5)cc3n2)n1)C1CC1 [Compound 349]
136 nM,–,1230 nM,–,–,–,9.05,C[C@]1(c2cccc(-c3ccc4cnc(CNC(=O)c5ccc6c(c5)S(=O)(=O)CCOC6)cc4n3)n2)CC1(F)F [Compound 219]
89.4 nM,–,586 nM,–,–,–,6.55,CN[C@H]1CCN(c2cccc(-c3ccc4cnc(CNC(=O)c5ccc6c(c5)S(=O)(=O)CCOC6)cc4n3)n2)CC1(F)F [Compound 67]
17.9 nM,–,136 nM,–,–,–,7.59,O=C(NCc1cc2nc(-c3cccc(N4CCC(F)(F)C4)n3)ccc2cn1)c1ccc2c(c1)S(=O)(=O)CCOC2 [Compound 202]

# Further lines, the compound ahead of its results:
SMILES,IC50 (BRM; ADP-Glo ATPase assay),Ratio* (BRM; ratio BRG1 IC50 / BRM IC50),IC50 (BRG-1; ADP-Glo ATPase assay),IC50 (BRM; [1]),Ratio* (BRM; ratio of BRG1 IC50 to BRM IC50),IC50 (BRG-1; [1]),Ratio* (BRG1 IC50 (μM) divided by BRM IC50 (μM)) (BRM)
O=C(NCc1cc2nc(-c3cccc(OCC4CC4)c3)ccc2cn1)c1ccc2c(c1)S(=O)(=O)CCOC2 [Compound 820],96.1 nM,14.31,1380 nM,–,–,–,–
CC1CN(c2cccc(-c3ccc4cnc(CNC(=O)c5ccc6c(c5)S(=O)(=O)C(C)CN6C)cc4n3)n2)CC(C)O1 (stereo not drawn) [Compound 498],–,–,–,26.6 nM,16.52,439 nM,–
Cn1ccc2c(-c3ccc4cnc(CNC(=O)c5ccc6c(c5)S(=O)(=O)CCOC6)cc4n3)cccc21 [Compound 245],18.7 nM,–,176 nM,–,–,–,9.42
C[C@@H]1CN(c2nccc(-c3ccc4cnc(CNC(=O)c5ccc(Cl)c(S(C)(=O)=O)c5)cc4n3)n2)C[C@H](C)O1 [Compound 180],17.6 nM,–,272 nM,–,–,–,15.48
O=C(NCc1cc2cc(N3CCOc4ccc(C5CC5)cc43)ccc2cn1)c1ccc2c(c1)S(=O)(=O)CCOC2 [Compound 787],13.5 nM,14.38,194 nM,–,–,–,–
O=C(NCc1cc2nc(N3CCCC4CCCC43)ccc2cn1)c1ccc2c(c1)S(=O)(=O)CCOC2 (stereo not drawn) [Compound 652],–,–,–,443 nM,7.21,3190 nM,–
O=C(NCc1cc2nc(N3CCOc4cc(C5CC5)ccc43)ccc2cn1)c1ccc2c(c1)S(=O)(=O)CCOC2 [Compound 481],–,–,–,13.2 nM,8.58,113 nM,–
COc1cncc2c1CCCN2c1ccc2cnc(CNC(=O)c3ccc4c(c3)S(=O)(=O)CCOC4)cc2n1 [Compound 761],8.7 nM,7.77,67.9 nM,–,–,–,–
Cc1cc2c(-c3ccc4cnc(CNC(=O)c5ccc(Cl)c(S(C)(=O)=O)c5)cc4n3)cccc2n1C [Compound 129],47.9 nM,–,570 nM,–,–,–,11.91
COC[C@H]1C[C@@H]1N(C)c1cccc(-c2ccc3cnc(CNC(=O)c4ccc5c(c4)S(=O)(=O)CCOC5)cc3n2)n1 [Compound 312],–,–,–,24.5 nM,13.30,326 nM,–
CCN(c1cccc(-c2ccc3cnc(CNC(=O)c4ccc5c(c4)S(=O)(=O)CCOC5)cc3n2)n1)[C@@H](C)COC [Compound 372],–,–,–,10.9 nM,10.78,117 nM,–
C[C@H]1COCc2ccc(C(=O)NCc3cc4nc(-c5cccc(C6CC6)n5)ccc4nn3)cc2S1(=O)=O [Compound 423],–,–,–,15.2 nM,32.23,491 nM,–
C[C@@H]1CN(c2cccc(-c3ccc4cnc(CNC(=O)c5ccc(C(F)F)c(S(C)(=O)=O)c5)cc4n3)n2)C[C@H](C)O1 [Compound 206],8 nM,–,110 nM,–,–,–,13.71
Cc1cc(C(=O)NCc2cc3nc(-c4cccc(N5C[C@@H](C)O[C@@H](C)C5)n4)ccc3cn2)cc2c1O[C@@H](C)CCS2(=O)=O [Compound 544],–,–,–,41.8 nM,24.42,1020 nM,–
COCCn1cc2cccc(-c3ccc4cnc(CNC(=O)c5ccc6c(c5)S(=O)(=O)CCOC6)cc4n3)c2n1 [Compound 701],–,–,–,87.2 nM,9.96,868 nM,–
O=C(NCc1cc2nc(-c3cccc(C4CC4)n3)ccc2cn1)c1cnc2c(c1)S(=O)(=O)CCOC2 [Compound 204],56.5 nM,–,679 nM,–,–,–,12.01
O=C(NCc1cc2nc(N3CCOc4ccc(C5CC5)c(F)c43)ccc2cn1)c1ccc2c(c1)S(=O)(=O)CCOC2 [Compound 760],8.8 nM,7.05,62.2 nM,–,–,–,–
COc1nn([C@H]2C[C@H](F)C2)cc1-c1ccc2cnc(CNC(=O)c3ccc4c(c3)S(=O)(=O)CCOC4)cc2n1 [Compound 152],136 nM,–,2140 nM,–,–,–,15.77
C[C@@H]1CN(c2cccc(-c3ccc4cnc(CNC(=O)c5ccc6c(c5)S(=O)(=O)CC[C@H](C5CC5)O6)cc4n3)n2)C[C@H](C)O1 [Compound 435],–,–,–,230 nM,18.45,4250 nM,–
Cc1c(C2CC2)cnc2c1OCCN2c1ccc2cnc(CNC(=O)c3ccc4c(c3)S(=O)(=O)CCOC4)cc2n1 [Compound 784],24.6 nM,8.62,212 nM,–,–,–,–
C[C@@H]1CN(c2cncc(-c3ccc4cnc(CNC(=O)c5ccc(C(F)F)c(S(C)(=O)=O)c5)cc4n3)n2)C[C@H](C)O1 [Compound 163],20.8 nM,–,264 nM,–,–,–,12.71
O=C(NCc1cc2nc(-c3cccc(N4CC5CC(C4)O5)n3)ccc2cn1)c1ccc2c(c1)S(=O)(=O)CCOC2 [Compound 276],81.8 nM,–,584 nM,–,–,–,7.14
CN1CCC2(c3cccc(-c4ccc5cnc(CNC(=O)c6ccc7c(c6)S(=O)(=O)CCOC7)cc5n4)n3)CC2C1 (stereo not drawn) [Compound 699],–,–,–,275 nM,8.04,2210 nM,–
CCO[C@H]1CCS(=O)(=O)c2cc(C(=O)NCc3cc4nc(-c5cccc(N6C[C@@H](C)O[C@@H](C)C6)n5)ccc4cn3)ccc2C1 [Compound 482],–,–,–,23.1 nM,10.09,234 nM,–
COc1cc(C2CC2)ccc1-c1ccc2cnc(CNC(=O)c3ccc4c(c3)S(=O)(=O)CCOC4)cc2n1 [Compound 387],–,–,–,68.3 nM,10.65,727 nM,–
O=C(NCc1cc2nc(N3CCOc4cnc(C5CC5)c(F)c43)ccc2cn1)c1ccc2c(c1)S(=O)(=O)CCOC2 [Compound 853],12.6 nM,16.24,205 nM,–,–,–,–
C[C@@H]1CN(c2cccc(-c3ccc4cnc(CNC(=O)c5ccc6c(c5)S(=O)(=O)[C@H](C)COC6)cc4n3)n2)C[C@H](C)O1 [Compound 159],36.7 nM,–,409 nM,–,–,–,11.15
